Broadly, the Kd is the free concentration of one partner at which half of the binding sites on the other are occupied at equilibrium, for simple one-to-one binding. Low values mean tighter binding, high ones weaker binding.

The target of the test is T1, Pru p 1.0101 (Prunus persica, UniProt Q2I6V8).
T1 construct: gene ypr-10
The test can be described thus: biochemical.

T1 sequence (Q2I6V8 1-160): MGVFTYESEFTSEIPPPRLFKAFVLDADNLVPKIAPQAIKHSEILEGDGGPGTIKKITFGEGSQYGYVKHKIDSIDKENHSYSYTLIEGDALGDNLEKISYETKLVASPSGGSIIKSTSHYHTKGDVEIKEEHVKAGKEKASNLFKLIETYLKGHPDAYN

As for `C/C(=C\CNc1ncnc2[nH]cnc12)CO` [trans-zeatin], the Kd came out at 1900 ± 400 µM.

(Values after PMC8323099 (Journal of Agricultural and Food Chemistry, 2021).)
